Experimental data reported in patent US20240270762A1, “PENICILLIN-BINDING PROTEIN INHIBITORS” (priority 2021, published 2024).
In brackets after ≈: the same amount, converted by molar mass.

Columns and labels:
[1] = tested on: N. gonorrhoeae ATCC 49226; experiment: Liquid broth MIC in Fastidious broth; conditions: Neisseria gonorrhoeae, ATCC49226, read-out: Minimum Inhibitory Concentration (MIC), N. gonorrhoeae ATCC 49226
E. coli AG100A = experiment: Broth microdilution MIC in CAMHB; format: cell-based; conditions: Escherichia coli, read-out: MIC E. coli AG100A
N. gonorrhoeae MS11 = experiment: Liquid broth MIC in Fastidious broth; conditions: Neisseria gonorrhoeae, MS11, read-out: Minimum Inhibitory Concentration (MIC), N. gonorrhoeae MS11
N. gonorrhoeae WHO M = experiment: Liquid broth MIC in Fastidious broth; conditions: Neisseria gonorrhoeae, read-out: Minimum Inhibitory Concentration (MIC), N. gonorrhoeae WHO M
[2] = target: T1, PBP3 from Escherichia coli (K-12) (Escherichia coli, UniProt P0AD68); experiment: Bocillin-FL fluorescence polarization competition binding, E. coli PBP3
T1 construct: made in house
T1 sequence (P0AD68 1-577): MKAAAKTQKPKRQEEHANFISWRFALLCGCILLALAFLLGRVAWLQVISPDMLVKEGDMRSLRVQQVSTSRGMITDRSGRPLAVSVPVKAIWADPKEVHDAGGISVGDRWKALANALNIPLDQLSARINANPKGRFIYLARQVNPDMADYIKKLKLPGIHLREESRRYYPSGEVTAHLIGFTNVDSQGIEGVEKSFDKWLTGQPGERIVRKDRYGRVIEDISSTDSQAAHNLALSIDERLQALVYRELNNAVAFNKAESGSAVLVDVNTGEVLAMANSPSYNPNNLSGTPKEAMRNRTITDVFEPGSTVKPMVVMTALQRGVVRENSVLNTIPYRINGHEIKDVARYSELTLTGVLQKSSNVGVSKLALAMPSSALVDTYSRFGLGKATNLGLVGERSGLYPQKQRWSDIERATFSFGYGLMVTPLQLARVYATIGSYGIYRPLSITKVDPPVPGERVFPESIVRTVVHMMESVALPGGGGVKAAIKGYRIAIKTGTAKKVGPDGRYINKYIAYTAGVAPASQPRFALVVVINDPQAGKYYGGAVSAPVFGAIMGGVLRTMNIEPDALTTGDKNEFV
Summary of the method: (§1)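 Purified PBPs pre-incubated with inhibitor (E. coli PBP3 1.5 μM, 30 min; P. aeruginosa PBP3 0.75 μM, A. baumannii PBP1a 1 μM and PBP3 0.2 μM, 15 min), then Bocillin-FL 0.1 μM (0.05 μM for PBP1a) added; FP read up to 60 min. EC50 = concentration halving bound Bocillin-FL.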

K. pneumoniae UMM = experiment: microbe, parasite or virus in culture; format: cell-based; conditions: Klebsiella pneumoniae, read-out: MIC K. pneumoniae UMM
E. coli D22 = experiment: microbe, parasite or virus in culture; format: cell-based; conditions: Escherichia coli, D22, read-out: MIC E. coli D22
[3] = target: T2, PBP3 from Pseudomonas aeruginosa (PAO1) (Pseudomonas aeruginosa, UniProt G3XD46); experiment: Bocillin-FL fluorescence polarization competition binding, P. aeruginosa PBP3; conditions: Binding affinity to P. aeruginosa PBP3; fluorescence polarization competition binding assay using Bocillin-FL; read-out: P. aeruginosa PBP3 Potency
T2 construct: made in house
T2 sequence (G3XD46 whole entry): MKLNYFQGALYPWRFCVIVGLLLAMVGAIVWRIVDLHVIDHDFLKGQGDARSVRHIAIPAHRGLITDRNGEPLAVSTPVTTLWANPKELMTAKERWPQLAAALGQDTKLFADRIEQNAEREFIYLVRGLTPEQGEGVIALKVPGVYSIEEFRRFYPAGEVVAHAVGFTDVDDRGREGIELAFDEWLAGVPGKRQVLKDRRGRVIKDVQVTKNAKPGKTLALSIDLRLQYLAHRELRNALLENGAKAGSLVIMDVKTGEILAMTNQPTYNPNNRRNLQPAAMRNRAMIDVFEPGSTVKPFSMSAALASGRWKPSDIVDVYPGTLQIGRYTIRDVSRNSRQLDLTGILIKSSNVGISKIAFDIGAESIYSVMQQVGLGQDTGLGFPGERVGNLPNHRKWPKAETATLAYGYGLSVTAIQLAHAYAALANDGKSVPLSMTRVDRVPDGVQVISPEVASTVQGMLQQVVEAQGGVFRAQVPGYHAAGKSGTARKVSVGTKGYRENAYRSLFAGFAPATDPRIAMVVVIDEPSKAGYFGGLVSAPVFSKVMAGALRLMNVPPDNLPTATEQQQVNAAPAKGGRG
Summary of the method: as §1

P. aeruginosa ATCC 27853 = experiment: microbe, parasite or virus in culture; format: cell-based; conditions: Pseudomonas aeruginosa, ATCC27853, read-out: MIC P. aeruginosa ATCC 27853
K. pneumoniae 848844 = experiment: microbe, parasite or virus in culture; format: cell-based; conditions: Klebsiella pneumoniae, 848844, read-out: MIC K. pneumoniae 848844
N. gonorrhoeae WHO Z = experiment: Liquid broth MIC in Fastidious broth; conditions: Neisseria gonorrhoeae, read-out: Minimum Inhibitory Concentration (MIC), N. gonorrhoeae WHO Z
N. gonorrhoeae FA1090 = experiment: Liquid broth MIC in Fastidious broth; conditions: Neisseria gonorrhoeae, FA1090, read-out: Minimum Inhibitory Concentration (MIC), N. gonorrhoeae FA 1090
E. coli AG100 = experiment: microbe, parasite or virus in culture; format: cell-based; conditions: Escherichia coli, AG100, read-out: MIC E. coli AG100

SMILES	MIC [1] [mg/L]	MIC (E. coli AG100A) [mg/L]	MIC (N. gonorrhoeae MS11) [mg/L]	MIC (N. gonorrhoeae WHO M) [mg/L]	EC50 [2] [µM]	MIC (K. pneumoniae UMM) [mg/L]	MIC (E. coli D22) [mg/L]	IC50 [3] [µM]	MIC (P. aeruginosa ATCC 27853) [mg/L]	MIC (K. pneumoniae 848844) [mg/L]	MIC (N. gonorrhoeae WHO Z) [mg/L]	MIC (N. gonorrhoeae FA1090) [mg/L]	MIC (E. coli AG100) [mg/L]
O=C(O)c1cccc2c1OB(O)[C@@H](NC(=O)[C@H](NC(=O)N1CCNC1=O)c1ccc(P(=O)(O)O)cc1)C2 [Example 40, (R)-2-hydroxy-3-((R)-2-(2-oxoimidazolidine-1-carboxamido)-2-(4-phosphonophenyl)acetamido)-3,4-dihydro-2H-benzo[e][1,2]oxaborinine-8-carboxylic acid]	< 1	8 to 16 (≈ 15 to 30.1 µM)	< 1	< 1	< 10	32 to 64 (≈ 60.1 to 120 µM)	2 to 4 (≈ 3.76 to 7.52 µM)	< 10	32 to 64 (≈ 60.1 to 120 µM)	> 128	< 1	< 1	32 to 64 (≈ 60.1 to 120 µM)
O=C(O)c1cccc2c1OB(O)[C@@H](NC(=O)[C@@H](NC(=O)c1ccn[nH]c1=O)c1ccc(P(=O)(O)O)cc1)C2 (single isomer, unassigned) [Example 177]	1 to 2 (≈ 1.84 to 3.69 µM)	> 128	1 to 2 (≈ 1.84 to 3.69 µM)	< 1	10 to 50	> 128	32 to 64 (≈ 59 to 118 µM)	< 10	> 128	> 128	4 to 8 (≈ 7.38 to 14.8 µM)	< 1	> 128
O=C(O)c1cccc2c1OB(O)[C@@H](NC(=O)[C@H](NC(=O)c1ccn[nH]c1=O)c1ccc(P(=O)(O)O)cc1)C2 (single isomer, unassigned) [Example 178]	< 1	32 to 64 (≈ 59 to 118 µM)	< 1	< 1	< 10	32 to 64 (≈ 59 to 118 µM)	2 to 4 (≈ 3.69 to 7.38 µM)	< 10	32 to 64 (≈ 59 to 118 µM)	> 128	< 1	< 1	> 128
O=C(O)c1cccc2c1OB(O)[C@@H](NC(=O)C(NS(=O)(=O)C1CC1)c1ccc(P(=O)(O)O)cc1)C2 (stereo partly drawn) [Example 61, (3R)-3-(2-(cyclopropanesulfonamido)-2-(4-phosphonophenyl)acetamido)-2-hydroxy-3,4-dihydro-2H-benzo[e][1,2]oxaborinine-8-carboxylic acid]	16 to 32 (≈ 30.5 to 61 µM)	> 128	16 to 32 (≈ 30.5 to 61 µM)	16 to 32 (≈ 30.5 to 61 µM)	50 to 250	> 128	> 128	10 to 50	> 128	> 128	16 to 32 (≈ 30.5 to 61 µM)	16 to 32 (≈ 30.5 to 61 µM)	> 128
NC(C(=O)N[C@H]1Cc2ccc(F)c(C(=O)O)c2OB1O)c1ccc(P(=O)(O)O)cc1 (stereo partly drawn) [Example 14, (3R)-3-(2-amino-2-(4-phosphonophenyl)acetamido)-7-fluoro-2-hydroxy-3,4-dihydro-2H-benzo[e][1,2]oxaborinine-8-carboxylic acid]	> 64	> 128	> 64	> 64	> 250	> 128	> 128	> 250	> 128	> 128	> 64	> 64	> 128
O=C(O)c1cccc2c1OB(O)[C@@H](NC(=O)[C@H](NC(=O)N1CCCCC1=O)c1ccc(P(=O)(O)O)cc1)C2 [Example 37, (R)-2-hydroxy-3-((R)-2-(2-oxopiperidine-1-carboxamido)-2-(4-phosphonophenyl)acetamido)-3,4-dihydro-2H-benzo[e][1,2]oxaborinine-8-carboxylic acid]	< 1	32 to 64 (≈ 58.7 to 117 µM)	1 to 2 (≈ 1.83 to 3.67 µM)	< 1	< 10	> 128	8 to 16 (≈ 14.7 to 29.3 µM)	< 10	> 128	> 128	1 to 2 (≈ 1.83 to 3.67 µM)	< 1	> 128
Cn1cccc(C(=O)N[C@@H](C(=O)N[C@H]2Cc3cccc(C(=O)O)c3OB2O)c2ccc(P(=O)(O)O)cc2)c1=O (single isomer, unassigned) [Example 182]	1 to 2 (≈ 1.8 to 3.6 µM)	32 to 64 (≈ 57.6 to 115 µM)	1 to 2 (≈ 1.8 to 3.6 µM)	< 1	< 10	> 128	8 to 16 (≈ 14.4 to 28.8 µM)	< 10	> 128	> 128	1 to 2 (≈ 1.8 to 3.6 µM)	< 1	> 128
O=C(O)c1cccc2c1OB(O)[C@@H](NC(=O)[C@H](NC(=O)c1cnc3sccn3c1=O)c1ccc(P(=O)(O)O)cc1)C2 (single isomer, unassigned) [Example 195]	4 to 8 (≈ 6.69 to 13.4 µM)	> 128	4 to 8 (≈ 6.69 to 13.4 µM)	1 to 2 (≈ 1.67 to 3.34 µM)	< 10	> 128	8 to 16 (≈ 13.4 to 26.7 µM)	< 10	32 to 64 (≈ 53.5 to 107 µM)	> 128	4 to 8 (≈ 6.69 to 13.4 µM)	< 1	> 128
CS(=O)(=O)N1CCN(C(=O)NC(C(=O)N[C@H]2Cc3cccc(C(=O)O)c3OB2O)c2ccc(P(=O)(O)O)c(Cl)c2)C1=O (stereo partly drawn) [Example 11, (3R)-3-(2-(3-chloro-4-phosphonophenyl)-2-(3-(methylsulfonyl)-2-oxoimidazolidine-1-carboxamido)acetamido)-2-hydroxy-3,4-dihydro-2H-benzo[e][1,2]oxaborinine-8-carboxylic acid]	< 1	8 to 16 (≈ 12.4 to 24.8 µM)	< 1	< 1	< 10	> 128	8 to 16 (≈ 12.4 to 24.8 µM)	< 10	> 128	> 128	< 1	< 1	32 to 64 (≈ 49.6 to 99.3 µM)
CC(=O)N1CCC[C@H]1C(=O)NC(C(=O)N[C@H]1Cc2cccc(C(=O)O)c2OB1O)c1ccc(P(=O)(O)O)cc1 (stereo partly drawn) [Example 65, (3R)-3-(2-((S)-1-acetylpyrrolidine-2-carboxamido)-2-(4-phosphonophenyl)acetamido)-2-hydroxy-3,4-dihydro-2H-benzo[e][1,2]oxaborinine-8-carboxylic acid]	16 to 32 (≈ 28.6 to 57.2 µM)	> 128	16 to 32 (≈ 28.6 to 57.2 µM)	4 to 8 (≈ 7.15 to 14.3 µM)	> 250	> 128	> 128	50 to 250	> 128	> 128	16 to 32 (≈ 28.6 to 57.2 µM)	4 to 8 (≈ 7.15 to 14.3 µM)	> 128
